{"source": "patent US7781486B2", "about": "“Punctual stimulation therapy” (priority 2003, dated 2010)", "system": "pain (VAS scale) in patients", "assay": "Punctual stimulation on both ears with simultaneous intravenous infusion of D-phenylalanine solution; pain reduction in patient case reports", "type": "in vivo, human", "text": "Very good relief of existing pain can be achieved by means of punctual stimulation, in which electrical current is supplied by way of needle electrodes stuck into the skin, whereby these needle electrodes are placed, in particular, at specifically sensitive points of an outer ear, in the case of the predominant number of patients treated with such stimulation.\nOn each of three consecutive days, punctual stimulation on both ears, with simultaneous intravenous infusion of a substance that inhibits the enzymatic decomposition of endogenous opioid neuropeptides, was carried out. Afterwards, punctual stimulation was carried out without infusion for the four subsequent days, by means of a small device worn by the patient, to supply power to needle electrodes that are stuck into the skin on one ear. This sequence was repeated several times, in coordination with the patient's need for pain reduction. In the case of punctual stimulations carried out with simultaneous infusion, electrical current was supplied to needle electrodes that were stuck into sensitive points of both ears. A sterile aqueous solution containing 20 g/L D-phenylalanine was administered as the infusion, whereby a total amount of D-phenylalanine of 200 to 300 mg/kilogram of body weight was administered during every treatment procedure. On the first days of the three-day sequences, in each instance, the infusion was started at least 10 min before the punctual stimulation. The flow velocity of the infusion was selected in accordance with an infusion period of 2.5 to 5 h.\nAdmission to clinic. Punctual stimulation carried out without infusion, by means of power supply to needle electrodes that are stuck into one ear, over a period of four days. Pain reduction achieved in this manner. Subsequently, punctual stimulation by means of power supply to needle electrodes that are stuck in both ears, and simultaneous intravenous infusion of an aqueous solution containing 15 g/L D-phenylalanine, in an amount of 250 mg/kg of body weight. An anti-emetic was also added to the solution. Duration of infusion about 3 h. During the course of this treatment, pain reduction all the way to freedom from pain (VAS-0). After 8 days, discharge from the clinic—free of symptoms, no vomiting, no nausea, no medication. At discharge, application of a device for punctual stimulation on one ear, without infusion, as mentioned above, for four days. Freedom from symptoms remains maintained during this stimulation period. On the following days, slight pain in the abdominal region, in individual instances. Three days after completion of the prior stimulation, again application of a device for a stimulation lasting four days—immediately clear relief. After this stimulation, again increase in pain, but tolerable without medication. After another three days, again application of such a device—free of symptoms. After removal of the device, again slight increase in pain, whereby the number of pain attacks and their intensity has decreased in comparison with previously. After several days, again a device applied for stimulation on one ear, lasting for four days—free of symptoms. After removal of the device, slow increase in pain to VAS-3-4. Ten days after removal of the device, again punctual stimulation on two ears, with intravenous infusion, as explained above. Pain reduction to VAS-0. […] Subsequently slow increase in pain up to maximum VAS-4. Two weeks after punctual stimulation on both ears, again application of a device for four days of stimulation on one ear without infusion—free of symptoms during stimulation. Another two weeks later, again application of such a device—free of symptoms during stimulation. Afterwards, more severe pain again in paraumbilical region, in individual instances. Again, application of a device as mentioned—free from symptoms during the stimulation. Later, sudden increase in pain. Therefore one week later, again punctual stimulation on both ears, with infusion. VAS-0. […]"}
{"smiles": "N[C@H](Cc1ccccc1)C(=O)O", "note": "[D-phenylalanine]", "values": [{"measurement": "dulling of sensory system", "setting": "after first treatment, 20 g/L, 300 mg/kg i.v.", "value": "without dulling of the sensory system"}, {"measurement": "duration of complete freedom from pain after treatment", "setting": "after second treatment with infusion", "value": 48, "unit": "h"}, {"measurement": "maximum pain (VAS) on slow increase after treatment", "setting": "after the 48 h following second treatment with infusion", "value": "≤ 4", "unit": "VAS"}, {"measurement": "pain (VAS) on increase after the pain-free period", "setting": "after three pain-free days", "value": 4, "unit": "VAS"}, {"measurement": "pain after treatment", "setting": "ankle pain VAS-10, back pain, first treatment: 15 g/L, 250 mg/kg i.v., 3 h, stimulation on both ears", "value": "complete freedom from pain"}, {"measurement": "pain reduction during each treatment procedure", "setting": "carcinoma with generalized metastases, 20 g/L D-phenylalanine i.v., 200 to 300 mg/kg, infusion 2.5 to 5 h, with punctual stimulation on both ears, three consecutive days", "value": "pain reduction, which went all the way to freedom from pain"}, {"measurement": "pain (VAS) during treatment", "setting": "lumbar ischialgia, from VAS 9.5, 20 g/L, 300 mg/kg i.v., 3 h, stimulation on both ears", "value": 0, "unit": "VAS"}, {"measurement": "pain after treatment", "setting": "second treatment on both ears with infusion", "value": "Complete freedom from pain"}, {"measurement": "pain after treatment", "setting": "second treatment with infusion, from VAS-6", "value": "complete freedom from pain achieved"}]}
